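Cells were grown in 96-well plates and exposed to each compound for 48 hours at five concentrations; endpoints were interpolated linearly between bracketing concentrations, or set to the highest concentration if not reached. GI50 marks 50% less growth. At the TGI there is no net growth.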
Experiments:
Test in all cases: DTP human tumour cell line panel, 48 h
SW-620 colon = test system: SW-620 colon
RPMI-8226 leukemia = test system: RPMI-8226 leukemia
M14 melanoma = test system: M14 melanoma
COLO 205 colon = test system: COLO 205 colon
HL-60(TB) leukemia = test system: HL-60(TB) leukemia
HCT-116 colon = test system: HCT-116 colon
HCC-2998 colon = test system: HCC-2998 colon
MCF7 breast = test system: MCF7 breast
SK-MEL-2 melanoma = test system: SK-MEL-2 melanoma
NCI/ADR-RES ovarian = test system: NCI/ADR-RES ovarian

Structure (SMILES)	TGI (SW-620 colon) [µM]	TGI (RPMI-8226 leukemia) [µM]	TGI (M14 melanoma) [µM]	TGI (COLO 205 colon) [µM]	TGI (HL-60(TB) leukemia) [µM]	TGI (HCT-116 colon) [µM]	TGI (HCC-2998 colon) [µM]	GI50 (M14 melanoma) [µM]	GI50 (MCF7 breast) [µM]	TGI (MCF7 breast) [µM]	GI50 (SK-MEL-2 melanoma) [µM]	TGI (SK-MEL-2 melanoma) [µM]	GI50 (HL-60(TB) leukemia) [µM]	GI50 (HCT-116 colon) [µM]	GI50 (NCI/ADR-RES ovarian) [µM]	TGI (NCI/ADR-RES ovarian) [µM]	GI50 (HCC-2998 colon) [µM]	GI50 (SW-620 colon) [µM]	GI50 (RPMI-8226 leukemia) [µM]	GI50 (COLO 205 colon) [µM]
C=CCC12CCC(=O)[C@@]1(C)CC=C(O)C2=O (stereo partly specified)	> 100	> 100	> 100	> 100	> 100	> 100	> 100	–	–	–	–	–	–	–	–	–	–	–	–	–
Cc1ccc(NC(=O)c2nc(S(C)(=O)=O)oc2-c2ccc(F)cc2)cc1Nc1ccc2ncn(C)c(=O)c2c1	–	–	3.72	–	5.2	3.37	6.47	1.75	1.9	4.43	1.59	3.29	2.11	1.75	3.14	15.7	2.54	–	–	–
O=C(O)CCC1CCc2cccc(OCC(=O)O)c2C1=O (stereo unspecified)	> 100	> 100	> 100	> 100	> 100	> 100	> 100	–	–	–	–	–	–	–	–	–	–	–	–	–
O=C(O)CNCCc1ccccc1	> 100	> 100	> 100	> 100	> 100	> 100	–	–	–	> 100	–	> 100	–	–	–	> 100	–	–	–	–
O=c1[nH]c(F)nc2c1ncn2C1OC(CO)C(O)C1O (stereo unspecified)	> 100	> 100	> 100	> 100	> 100	> 100	> 100	> 100	> 100	> 100	–	–	> 100	> 100	> 100	> 100	> 100	> 100	> 100	> 100
Cn1c(NCC(CN2CCCC2)OC(=O)c2ccccc2)cc(=O)n(C)c1=O (stereo unspecified)	> 100	> 100	–	> 100	–	> 100	> 100	–	> 100	> 100	> 100	> 100	–	> 100	> 100	> 100	> 100	> 100	> 100	> 100
O=C(O)c1cn(C2CC2)c2cc(N3CCN(C(=O)Nc4nc(-c5ccc(Br)cc5)cs4)CC3)c(F)cc2c1=O	> 100	> 100	> 100	–	–	> 100	> 100	2.24	2.7	> 100	–	–	–	1.17	> 100	> 100	2.97	4.13	0.437	–
O=C(Cc1ccccc1)N/N=C(/c1nc2ccc([N+](=O)[O-])cc2[nH]c1=O)C(O)c1ccccc1Cl (stereo unspecified)	> 100	> 100	> 100	> 100	> 100	> 100	> 100	–	–	–	–	> 100	–	–	–	–	–	–	–	–
Cc1cc2c(cc1C)[n+](=O)c(C(=O)CC(=O)C(=O)Nc1ccccc1C(C)C)c(C)n2[O-]	> 100	> 100	> 100	> 100	> 100	> 100	> 100	–	–	–	–	> 100	–	–	–	–	–	–	–	–
NC1=NC2=C(CCCC2)C(c2cccs2)S1 (stereo unspecified)	> 100	> 100	> 100	> 100	> 100	> 100	> 100	–	–	–	–	> 100	–	–	–	–	–	–	–	–
CN(C)c1ccc(/C=c2\sc3nnc(-c4cccnc4)n3c2=O)cc1	> 100	> 100	> 100	> 100	> 100	> 100	> 100	–	–	–	–	> 100	–	–	–	–	–	–	–	–
OCCCc1cnco1	> 100	> 100	> 100	> 100	> 100	> 100	> 100	–	–	–	–	–	–	–	–	–	–	–	–	–
N#Cc1c2ccccc2c2nnc3ccccc3n12	91.8	> 100	62.4	> 100	> 100	> 100	–	14.9	14.2	52.4	–	–	> 100	28	–	–	–	23.1	> 100	9.32
Cn1c(=O)c2[nH]c(CCCc3ccc([N+](=O)[O-])cc3)nc2n(C)c1=O	–	> 100	> 100	> 100	–	> 100	–	–	–	> 100	–	> 100	–	–	–	> 100	–	–	–	–
Cn1c2cc([N+](=O)[O-])ccc2c(=O)c2c(O)cc3c(c21)C=CC(C)(C)O3	> 100	> 100	> 100	> 100	> 100	–	> 100	–	–	–	–	> 100	–	–	–	–	–	–	–	–
CC(=O)CC(=O)NC=O	> 100	> 100	> 100	> 100	> 100	> 100	> 100	–	–	–	–	> 100	–	–	–	–	–	–	–	–
O=C(N/C=C/C=C/Sc1ccccc1)OCc1ccccc1	32.8	> 100	32.9	31.6	> 100	38.1	42.8	–	–	–	–	–	–	–	–	–	–	–	–	–
C=C1C(=O)c2cc3c(cc2C(c2cc(OC)c(OC)c(OC)c2)[C@@H]1C(=O)O)OCO3 (stereo partly specified)	> 100	> 100	> 100	> 100	–	> 100	> 100	–	–	–	–	–	–	–	–	–	–	–	–	–
COC1=CC(=O)OC(/C=C(C)/C=C/C2=C(C)CCCC2(C)C)C1 (stereo unspecified)	> 100	–	> 100	–	> 100	> 100	> 100	–	–	–	–	> 100	–	–	–	–	–	–	–	–
COC(=O)c1nc(C(=O)OC)c2c([nH]c3ccccc32)c1C(=O)OC	> 100	–	> 100	> 100	–	> 100	> 100	–	–	–	–	> 100	–	–	–	–	–	–	–	–
Fc1ccc(C2SCc3nc4ccccc4n32)cc1F (stereo unspecified)	> 100	36.7	76.7	90.3	26.2	> 100	> 100	–	–	–	–	63.7	–	–	–	–	–	–	–	–
N#Cc1ccc(C(C2C(=O)NC(=O)NC2=O)C2C(=O)NC(=O)NC2=O)cc1	> 100	> 100	> 100	> 100	> 100	> 100	> 100	–	–	–	–	> 100	–	–	–	–	–	–	–	–

Reference: PubChem BioAssay (NCI)
